Measurements: patent publication US11298338B2, “Compositions and methods for cancer therapy” (UNIVERSITY OF IOWA RESEARCH FOUNDATION, priority 2016, dated 2022)
“Also recorded” adds a separate entry of the source.

Assays:
[1] = system: ARP1 MM cells; assay: Human myeloma xenograft mice, tumor burden by IVIS and survival; format: in vivo, NOD.Cγ-Rag1 mice; details: for MM cell growth (tumor burden) compared to the control group: p<0.05, melphalan, carfilzomib, bortezomib 3 mg/kg, 3 weeks
Description: NOD.Cγ-Rag1 mice 6-8 weeks old (Jackson laboratory, Bar Harbor, Me.) were injected intravenously with ARP1 MM cells (1×10^6) expressing luciferase. […] Bortezomib (3 mg/kg) was injected intraperitoneal once a day, 2 days a week for 3 weeks. The mice were euthanized when humane endpoint was reached.
Xenogen IVIS-200 an in vivo imaging system (IVIS) was used to analyze tumor burden and was indicated by quantification of luciferase intensity of mice pre- and post-treatments.
GEP data were analyzed by One-Way Anova test using log 2 transformed Affymetrix Signals and presented by boxplot. The comparisons of tumor burden were analyzed either by student t-test (2 groups) or by One-Way Anova test (>2 groups). Kaplan-Meier method was performed for survival with the use of SPSS 16.0 software (SPSS, Chicago, Ill.). Two-tailed p value at an alpha level of 0.05 was considered to indicate statistical significance. Graphs were generated using Prism 6 software.

[2] = system: OCI-MY5 cells; assay: OCI-MY5 cell viability after 1 hr PAA treatment; format: cell-based, human; details: for effect of pre-treatment on PAA-induced cell death: OCI-MY5, catalase 100 U/ml, NAC 15 mM, DFO 200 μM or BCS 10 μM for 3 hrs before PAA, viability 24 hrs later
Description: FIGS. 2A-2D. […] OCI-MY5 EV (FIG. 2C) and OCI-MY5 OE-Fpn1 (FIG. 2D) were incubated with or without iron (Fe-NTA (FE), 100 μM).
(§1) FIGS. 4A-4E. […] (FIG. 4A) Top bar graph represents OCI-MY5 shRNA-Scramble and shRNA-AIF1 cells incubated with doxycycline to knockdown AIF1 for 2 days. Bottom bar graph represents OCI-MY5 EV and OCI-MY5 OE-AIF1 cells. […] Knockdown and overexpression of AIF1 was confirmed by western blots. […] AIF1, β-actin and γ-H2AX levels were analyzed by western blots. […] AIF1 and β-actin levels were analyzed by western blots. […] N, M, C respectively represent nucleus, mitochondria and cytoplasm. Blue arrows indicate the nuclear membrane and red arrowheads indicate AIF1 gold beads in cytoplasm or mitochondria. Black arrowheads indicate AIF1 gold beads in nuclei.
FIGS. 9A-9B. […] (FIG. 9B) Total RNA was extracted from OCI-MY5 EV and OE cells and Fpn1 mRNA was analyzed by Real time RT-PCR.
Human myeloma cell lines (ARP1, OCI-MY5 and their derivative cell lines) were cultured in RPMI 1640 (Invitrogen, Carlsbad, Calif.), supplemented with 10% heat-inactivated FBS (Invitrogen), penicillin (100 IU/mL), and streptomycin (100 μg/mL) in a humidified incubator at 37° C. and 5% CO2/95% air. To increase cellular iron concentration, ferric nitrilotriacatate (Fe-NTA) was used.

[3] = system: KMS11, ARK and ARP1 cells; assay: Erastin growth inhibition, PrestoBlue assay; format: cell-based, human; details: ferrostatin (Fer-1) 1 μM with 10 μM Erastin, 48 hours
Description: FIG. 23. Erastin Inhibits MM Cells Growth. KMS11, ARK and ARP1 cells were treated with 10 μM Erastin with or without ferrostatin (Fer-1) at 1 μM for 48 hours. Cell proliferation was measured by PrestoBlue assay and normalized to control cells to calculated growth inhibition.

[4] = system: CD138+ MM cells; assay: Pharmacological Ascorbic Acid viability assay (Trypan Blue), CD138+ cells from patients; format: cell-based, human
Description: CD138^+ MM cells and CD138^− non-MM cells were isolated from MGUS, SMM, and MM patient samples using anti-CD138 immunomagnetic beads (Miltenyl Biotec, Auburn, Calif.). […] After incubation, the cells were washed and cultured up to 24 h. Cell counts and viable cell number were determined using Trypan Blue staining.

[5] = system: CD138- non-MM cells; assay: Pharmacological Ascorbic Acid viability assay (Trypan Blue), CD138- cells from patients; format: cell-based, human; details: CD138- BM cells from the same MM patients
Description: Pharmacological Ascorbic Acid (PAA) was kindly provided by Dr. Garry R. Buettner (University of Iowa). CD138^+ MM cells and CD138^− non-MM cells were isolated from MGUS, SMM, and MM patient samples using anti-CD138 immunomagnetic beads (Miltenyl Biotec, Auburn, Calif.). […] After incubation, the cells were washed and cultured up to 24 h. Cell counts and viable cell number were determined using Trypan Blue staining.

[6] = system: OCI-MY5 WT cells; assay: Transmission electron microscopy of PAA-treated OCI-MY5 WT cells; format: cell-based, human; details: 4 mM PAA one hour, fixed after 60 and 120 min
Description: (§2) FIGS. 3A-3B. […] Red boxes represent zooming image of mitochondria in OCI-MY5 WT cells (left) and OCI-MY5 WT cells treated with PA (right).
(§3) Electron microscopy was performed by the Central Microscopy Research Facility personnel at the University of Iowa. Images were captured on JEOL JEM 1230.

[7] = system: caspases 3, 8, and 9; assay: Western blot of caspases in OCI-MY5 WT cells; format: cell-based, human; details: OCI-MY5 WT after PAA (FIG. 3B)
Description: as §2
(§4) Cells were harvested and lysed with lysis buffer: 150 mM NaCl, 10 mM EDTA, 10 mM Tris, pH 7.4, 1% X-100 Triton. Cell lysates were subjected to SDS-PAGE, transferred onto a pure nitrocellulose membrane (BioRad), and blocked with 5% fat-free milk. Primary antibodies for immunoblotting included: anti-AIF1 (1:1000, Cell Signaling), anti-RIP (1:1000, Santa Cruz Biotechnology), anti-RIP3 (1:1000, Cell Signaling), anti-Caspase3 (1:1000, Cell Signaling), anti-Caspase 8 (1:1000, Cell Signaling), anti-Caspase 9 (1:1000, Cell Signaling) Phosphorylated γH2AX (1:1000, Enzo Life Sciences), and β-actin (1:1000, Cell Signaling) as loading control. Membranes were incubated with horseradish peroxidase (HRP)-conjugated anti-mouse secondary antibody (1:10,000, Santa Cruz Biotechnology, cat #: sc-2005) or anti-rabbit secondary antibody (1:10,000, AnaSpec Inc., cat #: AS-28177) for 1 h and chemi-luminescence signals were detected by HRP substrate (EMD Millipore).

[8] = system: RIP1 and RIP3; assay: Western blot of RIP1 and RIP3 in OCI-MY5 WT cells; format: cell-based, human; details: OCI-MY5 WT after PAA (FIG. 3B)
Description: as §2, §4

[9] = system: AIF1; assay: Western blot of AIF1 cleavage in OCI-MY5 cells; format: cell-based, human; details: OCI-MY5 cells (FIG. 4C); melphalan 0-80 μM 4 hrs
Description: as §1
(§5) Cells were harvested and lysed with lysis buffer: 150 mM NaCl, 10 mM EDTA, 10 mM Tris, pH 7.4, 1% X-100 Triton. Cell lysates were subjected to SDS-PAGE, transferred onto a pure nitrocellulose membrane (BioRad), and blocked with 5% fat-free milk. […] Membranes were incubated with horseradish peroxidase (HRP)-conjugated anti-mouse secondary antibody (1:10,000, Santa Cruz Biotechnology, cat #: sc-2005) or anti-rabbit secondary antibody (1:10,000, AnaSpec Inc., cat #: AS-28177) for 1 h and chemi-luminescence signals were detected by HRP substrate (EMD Millipore).

[10] = system: γ-H2AX; assay: Western blot of phosphorylated γ-H2AX in OCI-MY5 cells; format: cell-based, human; details: OCI-MY5 (FIG. 4C); melphalan alone at high dose, with PAA at lower dose
Description: as §1, §5

[11] = system: AIF1; assay: AIF1 immunolabeling electron microscopy in OCI-MY5 cells; format: cell-based, human; details: OCI-MY5, PAA 2 mM (FIG. 4E)
Description: as §1, §3

[12] = system: ARP1 MM cells with TRIP13 overexpression; assay: Cell viability of ARP1 cells with TRIP13-OE or EV under drug treatment; format: cell-based, human; details: for response of TRIP13-OE ARP1 cells to drug: ARP1-OE vs ARP1-EV, different doses (FIGS. 37A, 37B)
[13] = system: AIF1; assay: Western blot of nuclear AIF1 in ARP1 MM cell line; format: cell-based, human; details: TRIP13N and TRIP13OE MM cells (FIG. 38D)
[14] = intraperitoneal administration of 4 g ascorbate per kilogram of body weight; cited from earlier work
[15] = cited from earlier work

CC(C)C[C@H](NC(=O)[C@H](CCc1ccccc1)NC(=O)CN1CCOCC1)C(=O)N[C@@H](Cc1ccccc1)C(=O)N[C@@H](CC(C)C)C(=O)[C@@]1(C)CO1 [carfilzomib]
MM cell growth (tumor burden) compared to the control group ([1]; FIG. 1D, PAA 4 mg/kg): inhibited MM cell growth significantly

catalase
effect of pre-treatment on PAA-induced cell death [2]: resistant to PAA

CCOC(=O)c1ccc(NC2CCCCC2)c(N)c1 [ferrostatin]
effect of ferroptosis inhibitor on erastin growth inhibition [3]: can be reversed

O=C1O[C@H]([C@@H](O)CO)C(O)=C1O [PAA, ascorbic acid]
response to PAA of CD138+ cells from MGUS patients ([4]; 2 MGUS patients (FIG. 1C)): almost no response
survival of CD138+ cells in vitro following PAA treatment ([4]; CD138+ cells from MM patients, PAA 1 hr, washed, cultured up to 24 h): significantly decreased; also recorded: increased killing
effect of PAA on cell viability in SMM patients ([4]; cells from SMM patients (FIG. 1B)): same effect
cell viability of CD138- BM cells following PAA treatment [5]: no significant change
MM cell growth (tumor burden) compared to the control group ([1]; FIG. 1D, PAA 4 mg/kg): inhibited MM cell growth significantly
tumor burden with PAA in mice receiving iron chelator DFO at the same time ([1]; PAA 4 mg/kg IP once a day, DFO 100 mg/Kg twice a week IP (FIG. 25)): not able to decrease tumor burden
tumor progression by IVIS ([1]; PAA 4 mg/kg, once per day, IP, 15 days vs saline): significantly delayed
viability after PAA treatment, AIF1-shRNA cells versus scrambled sequence ([2]; OCI-MY5 AIF1-shRNA (FIG. 4A top)): significantly higher
PAA concentration able to kill cells ([2]; OCI-MY5 EV cells): 4 mM
viability after PAA treatment, OE-AIF1 cells versus empty vector ([2]; OCI-MY5 OE-AIF1 (FIG. 4A bottom)): significantly less viability
PAA concentration required to successfully kill cells ([2]; OCI-MY5 OE-Fpn1 cells): 20 mM
type of cell death by TEM [6]: early necrosis (FIG. 3A, 60 mins) followed by late apoptosis
caspases 3, 8, and 9 activity (cleavage) [7]: marked increase
RIP1 and RIP3 cleavage [8]: cleaved
AIF1 cleavage by western blotting [9]: increase in the AIF1 cleaved form
phosphorylated γ-H2AX level [10]: induced γ-H2AX
cellular localization of AIF1 [11]: also in cytoplasm and nuclei
response of TRIP13-OE ARP1 cells to drug [12]: sensitive
AIF1 nuclear translocation [13]: induces AIF1 nuclear translocation
levels of ascorbate [14]: 20000 to 40000 µM
levels of ascorbyl radicals [14]: 0.5 µM
safety and tolerability ([15]; IV, animals and humans): safe and well tolerated
plasma concentrations from pharmacological doses ([15]; intravenous (IV) administration): ≥ 10 mM

CC(C)C[C@H](NC(=O)[C@H](Cc1ccccc1)NC(=O)c1cnccn1)B(O)O [bortezomib]
MM cell growth (tumor burden) compared to the control group ([1]; FIG. 1D, PAA 4 mg/kg): inhibited MM cell growth significantly
growth inhibition in TRIP13-OE MM cells compared with EV controls ([12]; ARP1, 24 h, p<0.05 (FIGS. 27E, 27F)): significantly less growth inhibition
response of TRIP13-OE ARP1 cells to drug [12]: resistant
AIF1 nuclear translocation [13]: does not increase AIF1 nuclear localization

O=C([O-])CN(CC(=O)[O-])CC(=O)[O-].[Fe+3] [Iron, ferric nitrilotriacatate]
cell viability after iron pre-treatment and PAA ([2]; OCI-MY5 EV cells, Fe-NTA 100 μM 18 hrs (FIG. 2C)): rapid decrease in cells viability
cell viability after iron pre-treatment and PAA ([2]; OCI-MY5 OE-Fpn1 cells, Fe-NTA 100 μM 18 hrs (FIG. 2D)): same effect

CC(=O)N[C@@H](CS)C(=O)O [NAC, N-acetyl cysteine]
effect of pre-treatment on PAA-induced cell death [2]: resistant to PAA

bathocuproinedisulfonic acid disodium salt [BCS]
effect of pre-treatment on PAA-induced cell death [2]: not able to block cellular death

N[C@@H](Cc1ccc(N(CCCl)CCCl)cc1)C(=O)O [melphalan]
MM cell growth (tumor burden) compared to the control group ([1]; FIG. 1D, PAA 4 mg/kg): inhibited MM cell growth significantly
tumor burden compared among treatments ([1]; FIG. 1D, single agents vs combination): higher decrease in tumor burden
time at which presence of tumor was detected ([1]; highest dose of melphalan, single agent): only after four weeks
tumor burden at three weeks of treatment ([1]; melphalan 1, 3, 5 mg/kg with or without PAA (FIGS. 1E, 1F)): inhibit tumor growth better than PAA alone
MM mouse survival, compared with PAA alone ([1]; single agent melphalan 3 and 5 mg/kg (FIG. 1G)): extended MM mouse survival
AIF1 cleavage by western blotting [9]: not able to induce AIF1 cleavage
phosphorylated γ-H2AX level [10]: induced γ-H2AX
